# Test results published in patent publication US20080220031A1, “Dermocosmetic Preparations” (BASF Aktiengesellschaft, priority 2005, published 2008).
# Key:
# [1] = Oxidation test squalene test (Raman, azo initiator V65); settings: 2500 ppm test substance, azo initiator V65, 30 days at 40° C., squalene content by Raman spectrum
# Protocol: 3 ml of a 2% strength solution of the azo initiator V65 (from Wako) are introduced together with 2500 ppm of test substance (based on the squalene solution) into 12×100 […] Fiolax test tubes and thoroughly mixed using a laboratory shaker. The samples are then stored open in a through-circulation drying oven for 30 days at 40° C. At intervals of 7 days, the squalene content of the samples is determined by means of the Raman spectrum and chemometric evaluation. The datapoints are documented in an XY graph and the efficiency of the test substance is determined from the slope of the decomposition curves in comparison with a reference sample without test substance. The slope of the reference sample divided by the slope of the test substance sample gives the factor Q_Raman.
# [2] = Solubility of various HAS compounds in Miglyol 812; assay type: physicochemical; settings: introduced in portions into 10 g of Miglyol, stirred at room temperature
# Text: Experimental procedure: The respective MS compound was introduced gradually in small portions into 10 g of Miglyol and in each case stirred at room temperature until it had completely dissolved.
# [3] = footnotes 2-4: BASF Technical Information / H. Zweifel; cited from earlier work
Solubility in Miglyol 812 [2],Compound,Qraman (slope of reference sample divided by slope of test substance sample) [1],pKa [3]
,COC(=O)C(CO)ON1C(C)(C)CC(OC)CC1(C)C (stereo not drawn),1.8,
,CN1C(C)(C)CC(N2CN3C(=O)N4CN(C5CC(C)(C)N(C)C(C)(C)C5)CN5C(=O)N(C2)C3C45)CC1(C)C,2.2,
,CCCCCCCCCCCCC1CC(=O)N(C2CC(C)(C)NC(C)(C)C2)C1=O (stereo not drawn) [drawing 31],7.1,
,Tocopherol,1.4,
,CCCCCCCCON1C(C)(C)CC(OC(=O)CCCCCCCCC(=O)OC2CC(C)(C)N(OCCCCCCCC)C(C)(C)C2)CC1(C)C [Tinuvin 123],1.8,
,CCCCCCCCCCCCC1CC(=O)N(C2CC(C)(C)N(C)C(C)(C)C2)C1=O (stereo not drawn),6.2,
,CCCCN(c1nc(NCCCN(CCN(CCCNc2nc(N(CCCC)C3CC(C)(C)N(C)C(C)(C)C3)nc(N(CCCC)C3CC(C)(C)N(C)C(C)(C)C3)n2)c2nc(N(CCCC)C3CC(C)(C)N(C)C(C)(C)C3)nc(N(CCCC)C3CC(C)(C)N(C)C(C)(C)C3)n2)c2nc(N(CCCC)C3CC(C)(C)N(C)C(C)(C)C3)nc(N(CCCC)C3CC(C)(C)N(C)C(C)(C)C3)n2)nc(N(CCCC)C2CC(C)(C)N(C)C(C)(C)C2)n1)C1CC(C)(C)N(C)C(C)(C)C1,1.4,
4.7%,CC1(C)CC(OC(=O)CCCCCCCCC(=O)OC2CC(C)(C)NC(C)(C)C2)CC(C)(C)N1 [Tinuvin ® 770],,
min. 50%,"CCCCCCCCCCCCC1CC(=O)N(C2CC(C)(C)NC(C)(C)C2)C1=O (stereo not drawn) [2-Dodecyl-N-(2,2,6,6-tetramethyl-4-piperidinyl)succinimide]",,
,O=C1O[C@H]([C@@H](O)CO)C(O)=C1O [Ascorbic acid],1.2,
,CC(ON1C(C)(C)CC(O)CC1(C)C)c1ccccc1 (stereo not drawn),1.3,
insoluble,CC1(C)CC(N(C=O)CCCCCCN(C=O)C2CC(C)(C)NC(C)(C)C2)CC(C)(C)N1 [Uvinul ® 4050H],,
,CN1C(C)(C)CC(N(C=O)CCCCCCN(C=O)C2CC(C)(C)N(C)C(C)(C)C2)CC1(C)C,2.4,
,CC1(C)CC(N2CN3C(=O)N4CN(C5CC(C)(C)NC(C)(C)C5)CN5C(=O)N(C2)C3C45)CC(C)(C)N1,1.3,9.8^2)
